Measurements taken from US20140343000A1 (priority 2011, published 2014).

The compounds below were run on recombinant NL4-3 virus (Renilla luciferase in nef, Gag P373S; NLRluc) in MT-2 cells (assay: whole plant or invertebrate). Conditions: Renilla, NL43, luciferase activity in cells infected for 4-5 days with NLRluc recombinants, serial dilutions of inhibitor; class symbols (key in Table 1); read-out: EC50.
Assay type: cell-based, HIV
How it was run: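 MT-2 cells infected 4–5 days with NL4-3 carrying Renilla luciferase in nef and Gag P373S, with serial dilutions of inhibitor present. Antiviral activity quantified by luciferase activity, using Dual Luciferase reagents premixed with lysis buffer and read immediately.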
`C=C(C)[C@@H]1CC[C@]2(NC(=O)COc3cccnc3)CC[C@]3(C)[C@H](CC[C@@H]4[C@@]5(C)CC=C(c6ccc(C(=O)O)cc6)C(C)(C)[C@@H]5CC[C@]43C)[C@@H]12` [Example 121, 4-((1R,3aS,5aR,5bR,7aR,11aS,11bR,13aR,13bR)-5a,5b,8,8,11a-pentamethyl-1-(prop-1-en-2-yl)-3a-(2-(pyridin-3-yloxy)acetamido)-2,3,3a,4,5,5a,5b,6,7,7a,8,11,11a,11b,12,13,13a,13b-octadecahydro-1H-cyclopenta[a]chrysen-9-yl)benzoic acid] gave an EC50 of under 100 nM.
In the case of `C=C(C)[C@@H]1CC[C@]2(NC(=O)CN3CCCCC3)CC[C@]3(C)[C@H](CC[C@@H]4[C@@]5(C)CC=C(c6ccc(C(=O)O)cc6)C(C)(C)[C@@H]5CC[C@]43C)[C@@H]12` [Example 122, 4-((1R,3aS,5aR,5bR,7aR,11aS,11bR,13aR,13bR)-5a,5b,8,8,11a-pentamethyl-3a-(2-(piperidin-1-yl)acetamido)-1-(prop-1-en-2-yl)-2,3,3a,4,5,5a,5b,6,7,7a,8,11,11a,11b,12,13,13a,13b-octadecahydro-1H-cyclopenta[a]chrysen-9-yl)benzoic acid], the EC50 is reported as under 100 nM.
In the case of `C=C(C)[C@@H]1CC[C@]2(NC(=O)CN(C(C)C)C(C)C)CC[C@]3(C)[C@H](CC[C@@H]4[C@@]5(C)CC=C(c6ccc(C(=O)O)cc6)C(C)(C)[C@@H]5CC[C@]43C)[C@@H]12` [Example 123, 4-((1R,3aS,5aR,5bR,7aR,11aS,11bR,13aR,13bR)-3a-(2-(diisopropylamino)acetamido)-5a,5b,8,8,11a-pentamethyl-1-(prop-1-en-2-yl)-2,3,3a,4,5,5a,5b,6,7,7a,8,11,11a,11b,12,13,13a,13b-octadecahydro-1H-cyclopenta[a]chrysen-9-yl)benzoic acid], the EC50 is reported as under 100 nM.
In the case of `C=C(C)[C@@H]1CC[C@]2(NC(=O)CN3CCCCC3C)CC[C@]3(C)[C@H](CC[C@@H]4[C@@]5(C)CC=C(c6ccc(C(=O)O)cc6)C(C)(C)[C@@H]5CC[C@]43C)[C@@H]12` (stereo partly drawn) [Example 124, 4-((1R,3aS,5aR,5bR,7aR,11aS,11bR,13aR,13bR)-5a,5b,8,8,11a-pentamethyl-3a-(2-(2-methylpiperidin-1-yl)acetamido)-1-(prop-1-en-2-yl)-2,3,3a,4,5,5a,5b,6,7,7a,8,11,11a,11b,12,13,13a,13b-octadecahydro-1H-cyclopenta[a]chrysen-9-yl)benzoic acid], the EC50 is reported as under 100 nM.
`C=C(C)[C@@H]1CC[C@]2(NC(=O)CNc3ccc(F)cc3)CC[C@]3(C)[C@H](CC[C@@H]4[C@@]5(C)CC=C(c6ccc(C(=O)O)cc6)C(C)(C)[C@@H]5CC[C@]43C)[C@@H]12` [Example 125, 4-((1R,3aS,5aR,5bR,7aR,11aS,11bR,13aR,13bR)-3a-(2-(4-fluorophenylamino)acetamido)-5a,5b,8,8,11a-pentamethyl-1-(prop-1-en-2-yl)-2,3,3a,4,5,5a,5b,6,7,7a,8,11,11a,11b,12,13,13a,13b-octadecahydro-1H-cyclopenta[a]chrysen-9-yl)benzoic acid] was tested, and the EC50 was under 100 nM.
For `C=C(C)[C@@H]1CC[C@]2(NC(=O)Cc3ncccn3)CC[C@]3(C)[C@H](CC[C@@H]4[C@@]5(C)CC=C(c6ccc(C(=O)O)cc6)C(C)(C)[C@@H]5CC[C@]43C)[C@@H]12` [Example 126, 4-((1R,3aS,5aR,5bR,7aR,11aS,11bR,13aR,13bR)-5a,5b,8,8,11a-pentamethyl-1-(prop-1-en-2-yl)-3a-(2-(pyrimidin-2-yl)acetamido)-2,3,3a,4,5,5a,5b,6,7,7a,8,11,11a,11b,12,13,13a,13b-octadecahydro-1H-cyclopenta[a]chrysen-9-yl)benzoic acid], the EC50 was under 100 nM.
With `C=C(C)[C@@H]1CC[C@]2(NC(=O)Cc3ccccn3)CC[C@]3(C)[C@H](CC[C@@H]4[C@@]5(C)CC=C(c6ccc(C(=O)O)cc6)C(C)(C)[C@@H]5CC[C@]43C)[C@@H]12` [Example 127, 4-((1R,3aS,5aR,5bR,7aR,11aS,11bR,13aR,13bR)-5a,5b,8,8,11a-pentamethyl-1-(prop-1-en-2-yl)-3a-(2-(pyridin-2-yl)acetamido)-2,3,3a,4,5,5a,5b,6,7,7a,8,11,11a,11b,12,13,13a,13b-octadecahydro-1H-cyclopenta[a]chrysen-9-yl)benzoic acid] the EC50 was under 100 nM.
For `CC(C)[C@@H]1CC[C@]2(NC(=O)CN3CCS(=O)(=O)CC3)CC[C@]3(C)[C@H](CC[C@@H]4[C@@]5(C)CC=C(c6ccc(C(=O)O)cc6)C(C)(C)[C@@H]5CC[C@]43C)[C@@H]12` [Example 129, 4-((1S,3aS,5aR,5bR,7aR,11aS,11bR,13aR,13bR)-3a-(((1,1-dioxido-4-thiomorpholinyl)acetyl)amino)-1-isopropyl-5a,5b,8,8,11a-pentamethyl-2,3,3a,4,5,5a,5b,6,7,7a,8,11,11a,11b,12,13,13a,13b-octadecahydro-1H-cyclopenta[a]chrysen-9-yl)benzoic acid], the EC50 was under 100 nM.
In the case of `CC(C)[C@@H]1CC[C@]2(NC(=O)CN3CCS(=O)(=O)CC3)CC[C@]3(C)[C@H](CC[C@@H]4[C@@]5(C)CC[C@H](c6ccc(C(=O)O)cc6)C(C)(C)[C@@H]5CC[C@]43C)[C@@H]12` [Example 130, 4-((1S,3aS,5aR,5bR,7aS,9S,11aS,11bR,13aR,13bR)-3a-(((1,1-dioxido-4-thiomorpholinyl)acetyl)amino)-1-isopropyl-5a,5b,8,8,11a-pentamethylicosahydro-1H-cyclopenta[a]chrysen-9-yl)benzoic acid], the EC50 is reported as under 100 nM.
In the case of `C=C(C)[C@@H]1CC[C@]2(NC(=O)C(=O)O)CC[C@]3(C)[C@H](CC[C@@H]4[C@@]5(C)CC=C(c6ccc(C(=O)O)cc6)C(C)(C)[C@@H]5CC[C@]43C)[C@@H]12` [Example 130-1, 4-((1R,3aS,5aR,5bR,7aR,11aS,11bR,13aR,13bR)-3a-(carboxyformamido)-5a,5b,8,8,11a-pentamethyl-1-(prop-1-en-2-yl)-2,3,3a,4,5,5a,5b,6,7,7a,8,11,11a,11b,12,13,13a,13b-octadecahydro-1H-cyclopenta[a]chrysen-9-yl)benzoic acid], the EC50 is reported as over 100 nM.
In the case of `C=C(C)[C@@H]1CC[C@]2(NC(=O)C3(NC(=O)OC(C)(C)C)CC3)CC[C@]3(C)[C@H](CC[C@@H]4[C@@]5(C)CC=C(c6ccc(C(=O)O)cc6)C(C)(C)[C@@H]5CC[C@]43C)[C@@H]12` [Example 130-2, 4-((1R,3aS,5aR,5bR,7aR,11aS,11bR,13aR,13bR)-3a-(1-(tert-butoxycarbonylamino)cyclopropanecarboxamido)-5a,5b,8,8,11a-pentamethyl-1-(prop-1-en-2-yl)-2,3,3a,4,5,5a,5b,6,7,7a,8,11,11a,11b,12,13,13a,13b-octadecahydro-1H-cyclopenta[a]chrysen-9-yl)benzoic acid], the EC50 is reported as under 100 nM.
In the case of `C=C(C)[C@@H]1CC[C@]2(NC(=O)[C@@H]3C[C@H](NC(=O)OCc4ccccc4)C3(C)C)CC[C@]3(C)[C@H](CC[C@@H]4[C@@]5(C)CC=C(c6ccc(C(=O)O)cc6)C(C)(C)[C@@H]5CC[C@]43C)[C@@H]12` [Example 130-3, 4-((1R,3aS,5aR,5bR,7aR,11aS,11bR,13aR,13bR)-3a-((1R,3S)-3-(((benzyloxy)carbonyl)amino)-2,2-dimethylcyclobutanecarboxamido)-5a,5b,8,8,11a-pentamethyl-1-(prop-1-en-2-yl)-2,3,3a,4,5,5a,5b,6,7,7a,8,11,11a,11b,12,13,13a,13b-octadecahydro-1H-cyclopenta[a]chrysen-9-yl)benzoic acid], the EC50 is reported as under 100 nM.
`C=C(C)[C@@H]1CC[C@]2(NS(=O)(=O)Cc3ccccn3)CC[C@]3(C)[C@H](CC[C@@H]4[C@@]5(C)CC=C(c6ccc(C(=O)O)cc6)C(C)(C)[C@@H]5CC[C@]43C)[C@@H]12` [Example 131, 4-((1R,3aS,5aR,5bR,7aR,11aS,11bR,13aR,13bR)-5a,5b,8,8,11a-pentamethyl-1-(prop-1-en-2-yl)-3a-(pyridin-2-ylmethylsulfonamido)-2,3,3a,4,5,5a,5b,6,7,7a,8,11,11a,11b,12,13,13a,13b-octadecahydro-1H-cyclopenta[a]chrysen-9-yl)benzoic acid] showed an EC50 of under 100 nM.
`C=C(C)[C@@H]1CC[C@]2(NCc3ccnc(F)c3)CC[C@]3(C)[C@H](CC[C@@H]4[C@@]5(C)CC=C(c6ccc(C(=O)O)cc6)C(C)(C)[C@@H]5CC[C@]43C)[C@@H]12` [Example 132, 4-((1R,3aS,5aR,5bR,7aR,11aS,11bR,13aR,13bR)-3a-((2-fluoropyridin-4-yl)methylamino)-5a,5b,8,8,11a-pentamethyl-1-(prop-1-en-2-yl)-2,3,3a,4,5,5a,5b,6,7,7a,8,11,11a,11b,12,13,13a,13b-octadecahydro-1H-cyclopenta[a]chrysen-9-yl)benzoic acid] gave an EC50 of under 100 nM.

Same assay, conditions: Renilla, NL43, luciferase activity in cells infected for 4-5 days with NLRluc recombinants, serial dilutions of inhibitor; numeric values; read-out: EC50
In the case of `C=C(C)[C@@H]1CC[C@]2(NCc3ccc(F)cn3)CC[C@]3(C)[C@H](CC[C@@H]4[C@@]5(C)CC=C(c6ccc(C(=O)O)cc6)C(C)(C)[C@@H]5CC[C@]43C)[C@@H]12` [Example 133, 4-((1R,3aS,5aR,5bR,7aR,11aS,11bR,13aR,13bR)-3a-((5-fluoropyridin-2-yl)methylamino)-5a,5b,8,8,11a-pentamethyl-1-(prop-1-en-2-yl)-2,3,3a,4,5,5a,5b,6,7,7a,8,11,11a,11b,12,13,13a,13b-octadecahydro-1H-cyclopenta[a]chrysen-9-yl)benzoic acid], the EC50 is reported as 30 nM.
Work on `C=C(C)[C@@H]1CC[C@]2(NCc3ncccc3C(F)(F)F)CC[C@]3(C)[C@H](CC[C@@H]4[C@@]5(C)CC=C(c6ccc(C(=O)O)cc6)C(C)(C)[C@@H]5CC[C@]43C)[C@@H]12` [Example 134, 4-((1R,3aS,5aR,5bR,7aR,11aS,11bR,13aR,13bR)-5a,5b,8,8,11a-pentamethyl-1-(prop-1-en-2-yl)-3a-((3-(trifluoromethyl)pyridin-2-yl)methylamino)-2,3,3a,4,5,5a,5b,6,7,7a,8,11,11a,11b,12,13,13a,13b-octadecahydro-1H-cyclopenta[a]chrysen-9-yl)benzoic acid] yielded an EC50 of 100 nM.
